Data as given in US12427183B2, “Methods of treating cancer, infectious disease, and autoimmune disease using chemokines” (New York Society for the Relief of the Ruptured and …, priority 2016, dated 2025).

Experiments:
[1] = test system: TLR9-mediated activation of human B cells; experiment: TLR9-mediated activation of human B cells (CpG with or without chemokines); type: cell-based
Protocol: PBMCs were prepared using Ficoll-Paque density gradient from fresh blood under internal Institutional Review Board-approved protocols. pDCs were isolated as previously described (Guiducci et al. 2008) using either using negative depletion (Miltenyi Biotech) or following cell sorting using a BD IFNLUX cell sorter. As part of the gating strategy, neutrophils were excluded by FSC/SSC and cells positive for CD14 (CD3 and CD19 as well) were first excluded in order to prevent the contamination by TLR8 positive cells and then positively gated on HLA-DR, CD123 and BDCA4 to purify the pDCs. All BDCA4+ cells also express BDCA2 (results not shown). As a result, pure pDCs were obtained and no markers for neutrophils (CD66) or myeloid cells were found by PCR. B cells were FACS sorted as CD19+ and monocytes as CD14+ cells. PBMCs were depleted of pDCs using BDCA4 beads from Miltenyi. pDCs were cultured at 10,000-30,000 cells per well in a 96-round bottom plate and incubated at 37° C., 5% CO2 and 95% humidity. After 24 hours of culture, the supernatant was collected for ELISA or Mutiplex cytokine assays. In some culture conditions, cells were cultured with the PI3Kδ inhibitor, CAL-101 (Selleck chemicals) for 24 hours. The RNA-based TLR8 agonist, ORN8-L previously described (Guidacci et al. 2013) was synthetized by Chemgenes Corporation. For the TLR8 activation assay, pDCs were incubated in complete media alone, 200 μg/ml ORN8-L in complete media or 200 μg/ml ORN8-L+ 10 μg/ml CXCL4 (R&D systems).
IL-6, TNF, and IL-10 gene levels were measured at 6 hours post culture using PCR. The secretion of cytokines/chemokines in the supernatants was quantified using Luminex. CD83, CD80, CD86 and CD69 expression was measured by flow cytometry at 24 hour post culture.
Human B cells were purified and cultured for 6 hours or 24 hours either with medium only, with CpG-C (at 0.15 μM) alone or with a combination of CpG-C and CXCL4 (at 10 μg/ml). IL-6 gene levels was measured at 6 hour post culture by PCR and CD83, CD80, CD86 and CD69 expression was measured by flow cytometry at 24 hour post culture.
Purified B cells from HDs were cultured in media alone (control), with either a CpG TLR9 agonist (0.15 μM) or with CpG and either CXCL4, CXCL10, CXCL9, CXCL4, CXCL7 or CXCL12 (all at 10 μg/ml). IL-6 was quantified in the supernatants by ELISA.
Purified B cells from HDs were cultured in media alone (control), with either a CpG TLR9 agonist (0.25 μM) or with CpG and CXCL4 or CXCL10 (10 μg/ml) alone or in the presence of the CXCR3 inhibitor AMG487 at 0, 0.1, 1 or 10 μM for 6 hours or 24 hours. IL-6 was quantified by ELISA at 24 hours and IL-6 and TNF gene expression levels were quantified by q-PCR at 6 hours and CD83, CD80, CD86 and CD69 expression was measured by flow cytometry at 24 hours post culture.

healthy monocytes = experiment: Cytokines in healthy monocytes with CXCL4; type: cell-based, human
[2] = CpG-B 0.15 μM + CXCL4 10 μg/ml, 6 hours

CXCL4: small chemokine of the CXC family, 70-amino acid protein released from alpha-granules of activated platelets
effect of inhibition of CXCR3 on the chemokine's inhibition of TLR9 in B cells ([1]; CXCR3 inhibitor AMG487 0.1, 1 or 10 μM, CpG 0.25 μM, chemokine 10 μg/ml, 6 or 24 hours): no effect
activation of B cells via TLR9 as shown by the production of IL-6 ([1]; CpG 0.15 μM, chemokine 10 μg/ml, ELISA): inhibited
expression of IL-6 in B cells (PCR and protein) [1, 2]: negatively regulated
expression of IL-10 in B cells (PCR and protein) [1, 2]: negatively regulated
expression of TNF in B cells (PCR and protein) [1, 2]: negatively regulated
TLR9 activation of B cells (IL-6 gene; CD83, CD80, CD86, CD69) ([1]; CpG-C 0.15 μM + CXCL4 10 μg/ml, 6 or 24 hours): negatively regulated
IFN-inducible IP-10 in healthy monocytes (healthy monocytes): reduces
IL-6 in healthy monocytes (healthy monocytes): increases
TNF in healthy monocytes (healthy monocytes): increases
